In patent US20140057997A1, “COSMETIC COMPOSITION COMPRISING 4-(3-ETHOXY-4-HYDROXYPHENYL)-2-BUTANONE AND A LIPOPHILIC SOLVENT” (L'OREAL, priority 2011, published 2014):

Experiment: Solubility stated in the introduction
Format: physicochemical

- Solubility (in 2-octyldodecanol): very sparingly soluble
- Solubility (in glycerol): very sparingly soluble
- Solubility (in water): very sparingly soluble
SMILES: CCOc1cc(CCC(C)=O)ccc1O [4-(3-ethoxy-4-hydroxyphenyl)-2-butanone, 4-(3-Ethoxy-4-hydroxyphenyl)-2-butanone]
